Among the data in PubChem BioAssay (NCI) are TGI and GI50 values, retold here.

Some test systems named below: HCT-15 colon; IGROV1 ovarian; MOLT-4 leukemia; NCI/ADR-RES ovarian; OVCAR-3 ovarian; SF-295 CNS; SK-MEL-2 melanoma; SK-MEL-28 melanoma; SN12C renal; SR leukemia.
Common to all, as to assay: DTP human tumour cell line panel, 48 h

Each structure is given as a SMILES string. Values joined by “and” are separate entries in the source; they are usually repeats but may differ in a detail not shown here. Equal values may be shown once.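 Where inhibition never reached the appropriate level, the endpoint shown equals the highest concentration tested. Otherwise, values were interpolated linearly from a five-concentration, 48-hour dose response in 96-well plates. The concentration for 50% growth inhibition is given as GI50. TGI marks complete inhibition of growth.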

Take `COc1cccc2c1[C@H]1CO[C@H]3C4C[C@H](C(=O)O)C([C@@H](C2)N13)N4C` (some centres undefined): the total growth inhibition concentration (TGI) is 6.12 µM in the assay on HCT-15 colon; 9.94 µM and 1.59 µM in the assay with IGROV1 ovarian; 7.74 µM in the assay with NCI/ADR-RES ovarian; 2.99 µM and 3.94 µM in the assay with OVCAR-3 ovarian; more than 41.8 µM in the assay on SF-295 CNS; 2.11 µM and 0.655 µM with SK-MEL-2 melanoma. Moreover, the TGI is 4.91 µM and 1.65 µM with SK-MEL-28 melanoma; 8.32 µM and > 35.8 µM with SN12C renal; 8.55 µM in the assay with SR leukemia. Also, the GI50 in the assay with IGROV1 ovarian was 0.551 µM; with MOLT-4 leukemia, 0.45 µM; in the assay with SK-MEL-2 melanoma, 0.245 µM; with SK-MEL-28 melanoma, 0.621 µM; in the assay with SN12C renal, 0.884 µM.

On to `OCc1ccc(N2CCCC2)cc1Cl`, for which the GI50 is 31 µM in the assay on HCT-15 colon; 0.452 µM with IGROV1 ovarian; 36.9 µM in the assay on MOLT-4 leukemia; 34.9 µM with NCI/ADR-RES ovarian; 2.18 µM in the assay with OVCAR-3 ovarian; 1.78 µM with SF-295 CNS. The GI50 in the assay on SK-MEL-2 melanoma was 12.9 µM; in the assay with SK-MEL-28 melanoma, more than 100 µM; in the assay on SN12C renal it was 47.6 µM; with SR leukemia, 46.2 µM. The TGI in the assay with HCT-15 colon is more than 100 µM; in the assay with IGROV1 ovarian, 2 µM; in the assay on MOLT-4 leukemia, more than 100 µM; with NCI/ADR-RES ovarian, more than 100 µM; with OVCAR-3 ovarian, 7.25 µM; in the assay on SF-295 CNS, 37.4 µM. The TGI in the assay on SK-MEL-2 melanoma was 51.5 µM; in the assay on SK-MEL-28 melanoma, more than 100 µM; in the assay with SN12C renal, more than 100 µM; in the assay with SR leukemia it was more than 100 µM.

Regarding `O=S(=O)(NC1=NCCN1C(=S)SN1CCn2c1nsc2=S)c1cccc(OC(F)(F)F)c1`, the GI50 with HCT-15 colon is 10.5 µM; in the assay on IGROV1 ovarian, 9.86 µM; in the assay on MOLT-4 leukemia, 2.71 µM; with NCI/ADR-RES ovarian it was 12 µM; with OVCAR-3 ovarian it was 5.07 µM; in the assay on SF-295 CNS, 23.6 µM. Moreover, the GI50 was 16 µM in the assay with SK-MEL-2 melanoma, 15.9 µM with SK-MEL-28 melanoma, 11.3 µM with SN12C renal and 2.77 µM in the assay with SR leukemia. Moreover, the TGI in the assay on HCT-15 colon stood at 22.4 µM; in the assay with IGROV1 ovarian, 46.6 µM; in the assay on MOLT-4 leukemia, 10.8 µM; in the assay on NCI/ADR-RES ovarian it was 44.8 µM; with OVCAR-3 ovarian, 16.4 µM; with SF-295 CNS, 63.3 µM. The concentration for total growth inhibition (TGI) was 41.5 µM in the assay on SK-MEL-2 melanoma, 32.6 µM in the assay on SK-MEL-28 melanoma, 26.7 µM with SN12C renal and more than 100 µM with SR leukemia.

With `CN(c1ccc(C#N)c(Cl)c1)C1CCC(NC(=O)c2ccc(N3CCN(C4CN(c5ccc6c(c5)C(=O)N(C5CCC(=O)NC5=O)C6=O)C4)CC3)cc2)CC1` (centres undefined), the GI50 in the assay with HCT-15 colon, in the assay with IGROV1 ovarian, with MOLT-4 leukemia, with NCI/ADR-RES ovarian, in the assay on OVCAR-3 ovarian and in the assay on SF-295 CNS was more than 100 µM throughout. Besides, the GI50 in the assay with SK-MEL-2 melanoma, in the assay with SK-MEL-28 melanoma, with SN12C renal and in the assay on SR leukemia was more than 100 µM each time. Also, the concentration for total growth inhibition (TGI) in the assay on HCT-15 colon, with IGROV1 ovarian, with MOLT-4 leukemia, in the assay with NCI/ADR-RES ovarian, in the assay on OVCAR-3 ovarian and in the assay on SF-295 CNS was more than 100 µM each time. For the same compound, the TGI in the assay with SK-MEL-2 melanoma, with SK-MEL-28 melanoma, in the assay on SN12C renal and in the assay on SR leukemia was more than 100 µM each time.

Consider `Clc1ccccc1NN(Cc1ccncc1)c1ccccc1Cl`, for which the TGI in the assay on HCT-15 colon is 34.3 µM; in the assay on IGROV1 ovarian, 27.7 µM; with MOLT-4 leukemia, 33.9 µM; in the assay on NCI/ADR-RES ovarian, 32 µM; with OVCAR-3 ovarian, 26.3 µM; with SF-295 CNS, 31.6 µM. Also, the concentration for total growth inhibition (TGI) worked out at 28.6 µM with SK-MEL-2 melanoma, 40.7 µM in the assay with SK-MEL-28 melanoma, 26.5 µM in the assay on SN12C renal and 32.2 µM in the assay on SR leukemia.

Take `CCSc1nc(N)c(C#N)c(-c2ccco2)c1C#N`: the GI50 is 28.4 µM in the assay with HCT-15 colon; 36.8 µM in the assay on IGROV1 ovarian; 51.9 µM with MOLT-4 leukemia; 34 µM in the assay with NCI/ADR-RES ovarian; 91.3 µM with OVCAR-3 ovarian; 47.7 µM in the assay on SF-295 CNS. In addition, the GI50 with SK-MEL-2 melanoma was more than 100 µM; in the assay on SK-MEL-28 melanoma, more than 100 µM; with SN12C renal, more than 100 µM; in the assay on SR leukemia, 20.2 µM. In addition, the TGI in the assay with HCT-15 colon, in the assay on IGROV1 ovarian, with MOLT-4 leukemia, in the assay with NCI/ADR-RES ovarian, in the assay on OVCAR-3 ovarian and in the assay with SF-295 CNS was more than 100 µM throughout. The TGI in the assay with SK-MEL-2 melanoma, in the assay on SK-MEL-28 melanoma, with SN12C renal and in the assay with SR leukemia was more than 100 µM each time.

Consider `CC(=O)OC(C)C(OC(C)=O)C(OC(C)=O)C(/C=C/C1CC=CC(=O)O1)OC(C)=O` (centres undefined), for which the GI50 with HCT-15 colon was 32.2 µM; with IGROV1 ovarian, 32 µM; in the assay on MOLT-4 leukemia, 29.2 µM; in the assay on NCI/ADR-RES ovarian, more than 100 µM; with OVCAR-3 ovarian, 30.8 µM; with SF-295 CNS it was 51 µM. Besides, the GI50 was 35.9 µM in the assay on SK-MEL-2 melanoma, 16.8 µM with SK-MEL-28 melanoma, 10.5 µM in the assay on SN12C renal and 19.4 µM in the assay on SR leukemia. In addition, the TGI was more than 100 µM in the assay on HCT-15 colon; more than 100 µM with IGROV1 ovarian; 97.5 µM in the assay with MOLT-4 leukemia; more than 100 µM in the assay with NCI/ADR-RES ovarian; 95.5 µM with OVCAR-3 ovarian; more than 100 µM in the assay on SF-295 CNS. Further, the TGI in the assay with SK-MEL-2 melanoma is more than 100 µM; in the assay on SK-MEL-28 melanoma it was 46.6 µM; in the assay with SN12C renal, 36.4 µM; in the assay on SR leukemia it was 53.4 µM.

One may read the TGI as the concentration giving total growth inhibition. One may read the GI50 as the concentration that inhibits growth by half.
